Data published in patent publication US11274332B2, “Methods of administering 3,4-diaminopyridine” (SERB SA, priority 2011, dated 2022).

Experiment: Food-effect crossover study, adverse events after single 20 mg amifampridine phosphate in healthy subjects (Examples 10, 11)
Type: in vivo
Protocol: This was a randomized, open-label, 2-treatment, 2-period crossover study with 44 completed subjects to assess the safety, tolerability, and the effect of food on the relative bioavailability of a single dose of amifampridine phosphate.
Safety was evaluated for all subjects who take at least one dose of 3,4-DAP. Safety was evaluated by recording the incidence of adverse events (AEs), physical examination, vital signs, concomitant medications, clinical laboratory assessments, and 12-lead electrocardiogram (ECG).
Analysis for the following safety parameters was carried out on the Safety Population: AEs which included all AEs, AEs by severity, drug-related AEs, deaths, SAEs, AEs leading to study discontinuation, and most frequent AEs, standard clinical laboratory tests, vital signs, ECG measurements, routine physical examinations, and prior and concomitant medications. The cut-off for frequency of AEs reported was determined based on the data. No formal statistical testing was performed for the safety analyses; only descriptive statistics were provided. Appropriate descriptive statistics for the safety data were determined using SAS Version 9.2.
AEs were coded according to the Medical Dictionary for Regulatory Activities (MedDRA; Version 13.0). […] The occurrence of AEs was assessed continuously from the time the subject signed the VID and consent. The reporting period for non-serious AEs was from the first dose to the final study visit. The investigator determined the severity of each event and the relationship of an AE to the IP and recorded it on the source documents and AE CRF. The nature, time of onset, duration, severity, and relationship to study drug was documented, including documentation of investigator assessment and review. All events were assessed to determine if the AE was serious.
The Investigator determined the severity of each event and the event was recorded on the source documents and AE CRF. A coding of “mild” meant there was no limitation of usual activities, “moderate” meant there was some limitation of usual activities, “severe” meant there was an inability to carry out usual activities.
The reporting period for AEs that met the criteria of an SAE began from the time of signing the VID and consent form through follow-up or early termination. […] Clinical Laboratory Assessments

Compound: Nc1ccncc1N.O=P(O)(O)O [amifampridine phosphate, 3,4-diaminopyridine phosphate]
- Paraesthesia, drug-related AE: subjects (Male N=31): 6
- Possibly or probably related AEs, Mild: % of subjects (Male N=31): 58%
- Possibly or probably related AEs, Mild: events (Male N=31): 51
- Possibly or probably related AEs, Mild: subjects (Male N=31): 18
- Possibly or probably related AEs, Moderate: % of subjects (Male N=31): (0%) [0]
- Possibly or probably related AEs, Moderate: events (Male N=31): (0%) [0]
- Possibly or probably related AEs, Moderate: subjects (Male N=31): 0
- Possibly or probably related AEs, Severe: % of subjects (Male N=31): (0%) [0]
- Possibly or probably related AEs, Severe: events (Male N=31): (0%) [0]
- Possibly or probably related AEs, Severe: subjects (Male N=31): 0
- Possibly or probably related AEs, Total: % of subjects (Male N=31): 58%
- Possibly or probably related AEs, Total: events (Male N=31): 51
- Possibly or probably related AEs, Total: subjects (Male N=31): 18
- Serious adverse events: % of subjects (Male N=31): (0%) [0]
- Serious adverse events: events (Male N=31): (0%) [0]
- Serious adverse events: subjects (Male N=31): 0
- Skin and Subcutaneous Tissue Disorders Total, drug-related AE: % of subjects (Male N=31): 3%
- Skin and Subcutaneous Tissue Disorders Total, drug-related AE: events (Male N=31): 1
- Skin and Subcutaneous Tissue Disorders Total, drug-related AE: subjects (Male N=31): 1
- Vascular Disorders Total, drug-related AE: % of subjects (Male N=31): (0%) [0]
- Vascular Disorders Total, drug-related AE: events (Male N=31): (0%) [0]
- Vascular Disorders Total, drug-related AE: subjects (Male N=31): 0
- paraesthesias among the 93 drug-related AEs: % of events (Overall): 54%
- paraesthesias among the 93 drug-related AEs: events (Overall): 50
- Abdominal Pain Upper, drug-related AE: % of subjects (Overall N=47): 4%
- Abdominal Pain Upper, drug-related AE: events (Overall N=47): 2
- Abdominal Pain Upper, drug-related AE: subjects (Overall N=47): 2
- Abdominal Pain, drug-related AE: % of subjects (Overall N=47): 6%
- Abdominal Pain, drug-related AE: events (Overall N=47): 3
- Abdominal Pain, drug-related AE: subjects (Overall N=47): 3
- Abdominal Tenderness, drug-related AE: % of subjects (Overall N=47): 2%
- Abdominal Tenderness, drug-related AE: events (Overall N=47): 1
- Abdominal Tenderness, drug-related AE: subjects (Overall N=47): 1
- Acne, drug-related AE: % of subjects (Overall N=47): 2%
- Acne, drug-related AE: events (Overall N=47): 1
- Acne, drug-related AE: subjects (Overall N=47): 1
- All treatment emergent AEs, Mild: % of subjects (Overall N=47): 64%
- All treatment emergent AEs, Mild: events (Overall N=47): 98
- All treatment emergent AEs, Mild: subjects (Overall N=47): 30
- All treatment emergent AEs, Moderate: % of subjects (Overall N=47): 4%
- All treatment emergent AEs, Moderate: events (Overall N=47): 2
- All treatment emergent AEs, Moderate: subjects (Overall N=47): 2
- All treatment emergent AEs, Severe: % of subjects (Overall N=47): 2%
- All treatment emergent AEs, Severe: events (Overall N=47): 1
- All treatment emergent AEs, Severe: subjects (Overall N=47): 1
- All treatment emergent AEs, Total: events (Overall N=47): 101
- All treatment emergent AEs, Total: subjects (Overall N=47): 31
- Constipation, drug-related AE: % of subjects (Overall N=47): 2%
- Constipation, drug-related AE: events (Overall N=47): 1
- Constipation, drug-related AE: subjects (Overall N=47): 1
- Diarrhoea, drug-related AE: % of subjects (Overall N=47): 2%
- Diarrhoea, drug-related AE: events (Overall N=47): 1
- Diarrhoea, drug-related AE: subjects (Overall N=47): 1
- Discontinued due to adverse events: % of subjects (Overall N=47): 2%
- Discontinued due to adverse events: events (Overall N=47): 1
- Discontinued due to adverse events: subjects (Overall N=47): 1
- Dizziness, drug-related AE: % of subjects (Overall N=47): 11%
- Dizziness, drug-related AE: events (Overall N=47): 7
- Dizziness, drug-related AE: subjects (Overall N=47): 5
- Dysgeusia, drug-related AE: % of subjects (Overall N=47): 4%
- Dysgeusia, drug-related AE: events (Overall N=47): 3
- Dysgeusia, drug-related AE: subjects (Overall N=47): 2
- Fatigue, drug-related AE: % of subjects (Overall N=47): 9%
- Fatigue, drug-related AE: events (Overall N=47): 4
- Fatigue, drug-related AE: subjects (Overall N=47): 4
- Feeling Hot, drug-related AE: % of subjects (Overall N=47): 2%
- Feeling Hot, drug-related AE: events (Overall N=47): 1
- Feeling Hot, drug-related AE: subjects (Overall N=47): 1
- Flushing, drug-related AE: % of subjects (Overall N=47): 2%
- Flushing, drug-related AE: events (Overall N=47): 1
- Flushing, drug-related AE: subjects (Overall N=47): 1
- Gastrointestinal Disorders Total, drug-related AE: % of subjects (Overall N=47): 19%
- Gastrointestinal Disorders Total, drug-related AE: events (Overall N=47): 12
- Gastrointestinal Disorders Total, drug-related AE: subjects (Overall N=47): 9
- General Disorders and Administration Site Conditions Total, drug-related AE: % of subjects (Overall N=47): 11%
- General Disorders and Administration Site Conditions Total, drug-related AE: events (Overall N=47): 5
- General Disorders and Administration Site Conditions Total, drug-related AE: subjects (Overall N=47): 5
- Headache, drug-related AE: % of subjects (Overall N=47): 11%
- Headache, drug-related AE: events (Overall N=47): 5
- Headache, drug-related AE: subjects (Overall N=47): 5
- Hypoaesthesia Facial, drug-related AE: % of subjects (Overall N=47): 2%
- Hypoaesthesia Facial, drug-related AE: events (Overall N=47): 1
- Hypoaesthesia Facial, drug-related AE: subjects (Overall N=47): 1
- Hypoaesthesia Oral, drug-related AE: % of subjects (Overall N=47): 11%
- Hypoaesthesia Oral, drug-related AE: events (Overall N=47): 6
- Hypoaesthesia Oral, drug-related AE: subjects (Overall N=47): 5
- Hypoaesthesia, drug-related AE: % of subjects (Overall N=47): 4%
- Hypoaesthesia, drug-related AE: events (Overall N=47): 2
- Hypoaesthesia, drug-related AE: subjects (Overall N=47): 2
- Nausea, drug-related AE: % of subjects (Overall N=47): 9%
- Nausea, drug-related AE: events (Overall N=47): 4
- Nausea, drug-related AE: subjects (Overall N=47): 4
- Nervous System Disorders Total, drug-related AE: % of subjects (Overall N=47): 57%
- Nervous System Disorders Total, drug-related AE: events (Overall N=47): 74
- Nervous System Disorders Total, drug-related AE: subjects (Overall N=47): 27
- Paraesthesia Oral, drug-related AE: % of subjects (Overall N=47): 43%
- Paraesthesia Oral, drug-related AE: events (Overall N=47): 30
- Paraesthesia Oral, drug-related AE: subjects (Overall N=47): 20
- Paraesthesia, drug-related AE: % of subjects (Overall N=47): 26%
- Paraesthesia, drug-related AE: events (Overall N=47): 20
- Paraesthesia, drug-related AE: subjects (Overall N=47): 12
- Possibly or probably related AEs, Mild: % of subjects (Overall N=47): 64%
- Possibly or probably related AEs, Mild: events (Overall N=47): 92
- Possibly or probably related AEs, Mild: subjects (Overall N=47): 30
- Possibly or probably related AEs, Moderate: % of subjects (Overall N=47): 2%
- Possibly or probably related AEs, Moderate: events (Overall N=47): 1
- Possibly or probably related AEs, Moderate: subjects (Overall N=47): 1
- Possibly or probably related AEs, Severe: % of subjects (Overall N=47): (0%) [0]
- Possibly or probably related AEs, Severe: events (Overall N=47): (0%) [0]
- Possibly or probably related AEs, Severe: subjects (Overall N=47): 0
- Possibly or probably related AEs, Total: % of subjects (Overall N=47): 64%
- Possibly or probably related AEs, Total: events (Overall N=47): 93
- Possibly or probably related AEs, Total: subjects (Overall N=47): 30
- Serious adverse events: % of subjects (Overall N=47): (0%) [0]
- Serious adverse events: events (Overall N=47): (0%) [0]
- Serious adverse events: subjects (Overall N=47): 0
- Skin and Subcutaneous Tissue Disorders Total, drug-related AE: % of subjects (Overall N=47): 2%
- Skin and Subcutaneous Tissue Disorders Total, drug-related AE: events (Overall N=47): 1
- Skin and Subcutaneous Tissue Disorders Total, drug-related AE: subjects (Overall N=47): 1
- Vascular Disorders Total, drug-related AE: % of subjects (Overall N=47): 2%
- Vascular Disorders Total, drug-related AE: events (Overall N=47): 1
- Vascular Disorders Total, drug-related AE: subjects (Overall N=47): 1
- safety and tolerability (single oral 20 mg, fed and fasted): safe and well tolerated
- deaths or SAEs (whole study): no deaths or SAEs
